In patent US20100234351A1, “FUSED NITROGEN-COMPRISING HETEROCYCLIC COMPOUND” (TAKEDA PHARMACEUTICAL COMPANY LIMITED, priority 2006, published 2010):
Where a name gives a salt, the structure may show the parent alone.

These molecules were tested against T1, HER2 intracellular domain (Homo sapiens, UniProt P04626) (assay: Measurement of HER2 kinase inhibitory activity). Settings: compound 1.0 μM, poly-Glu:Tyr (4:1) substrate, [γ-32P]ATP, read-out: Inhibitory rate (%) at 1.0 μM.
T1 construct: made in house; host or cells: SF-21 insect cells infected with recombinant baculovirus BAC-HER2
T1 sequence (P04626 676-1255): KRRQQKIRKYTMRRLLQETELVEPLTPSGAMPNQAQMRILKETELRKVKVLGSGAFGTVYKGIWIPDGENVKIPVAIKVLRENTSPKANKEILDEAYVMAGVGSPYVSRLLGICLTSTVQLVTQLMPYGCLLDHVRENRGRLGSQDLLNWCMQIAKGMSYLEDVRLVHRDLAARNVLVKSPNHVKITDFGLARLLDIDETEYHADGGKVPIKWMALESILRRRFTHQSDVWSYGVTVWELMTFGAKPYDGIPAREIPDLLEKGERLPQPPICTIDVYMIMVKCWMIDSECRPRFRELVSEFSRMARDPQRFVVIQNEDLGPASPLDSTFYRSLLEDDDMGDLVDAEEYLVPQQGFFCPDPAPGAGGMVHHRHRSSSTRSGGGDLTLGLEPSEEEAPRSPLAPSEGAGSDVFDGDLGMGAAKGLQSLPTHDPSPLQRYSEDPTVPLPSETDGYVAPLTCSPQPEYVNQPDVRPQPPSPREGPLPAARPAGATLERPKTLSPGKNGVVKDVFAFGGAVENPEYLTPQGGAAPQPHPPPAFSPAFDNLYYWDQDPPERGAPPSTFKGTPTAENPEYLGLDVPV
Format: biochemical
Method: Human HER2 gene was cloned by RT-PCR using total RNA prepared from MCF7 cells as a template. The primer used for RT-PCR was prepared from base sequence (Genbank Accession No. M11730) information of HER2 gene, adding base sequence encoding DYKDDDD peptide and a restriction enzyme recognition sequence to a nucleotide sequence (2176-3918 of Genbank Accession No. M11730 as a base, and corresponding to 676-1255 amino acid of Genbank Accession No. NP_004439 as a protein) encoding the HER2 intracellular domain region, so that a DYKDDDD peptide tag would be attached to the N-terminus of the protein. The base sequence of the primer is shown in below.
The RT reaction was performed using Superscript First-Strand Synthesis System for RT-PCR (Invitrogen) and the PCR reaction was performed using KOD-plus kit (TOYOBO). The obtained PCR product was electrophoresed on agarose gel (1%), and the DNA fragment amplified by PCR was recovered from the gel, and then digested with restriction enzymes Sal I and Sph I. The DNA treated with the restriction enzymes was electrophoresed on agarose gel (1%), and the obtained DNA fragment was recovered and ligated to plasmid pFASTBAC1 (Invitrogen) digested with restriction enzymes Sal I and Sph I to give expression plasmid pFB-HER2. The base sequence of the inserted fragment was confirmed and found to be identical with the base sequence of HER2 intracellular domain (2176-3918 of Genbank Accession M11730). Furthermore, using BAC-TO-BAC Baculovirus Expression System (Invitrogen), recombinant baculovirus BAC-HER2 was prepared.
SF-21 cells were sown at 1×10^6 cells/mL to 1 L of Sf-900II SFM medium (Invitrogen) containing 10% fetal calf serum (trace), 50 mg/L gentamicin (Invitrogen) and 0.1% Pluronic F-68 (Invitrogen), and cultured with shaking in 2 L volume Erlenmeyer flask at 27° C., 100 rpm. After culturing for 24 hr, recombinant baculovirus BAC-HER2 (13.4 mL) was added thereto, and the cells were further cultured for 3 days. The culture medium was centrifuged at 2,000 rpm for 5 min to give virus-infected cells. The infected cells were washed with phosphate buffered saline (Invitrogen), centrifuged under the same conditions, and preserved at −80° C. The cryopreserved cells were thawed in ice and suspended in buffer A (50 mM Tris buffer (30 mL, pH 7.4) containing 20% glycerol, 0.15 M NaCl) supplemented with Complete Protease Inhibitor (Boehringer). The cells were ruptured 3 times with a Polytron homogenizer (Kinematica) at 20,000 rpm for 30 sec. The disrupt was clarified by centrifugation at 40,000 rpm for 30 min and filtered with a 0.45 μm filter. The filtrate was passed through a column packed with Anti-FLAG M2 Affinity Gel (4 mL, Sigma Aldrich CO.) at a flow rate of about 0.5 mL/min. The column was washed with buffer A, and eluted with buffer A containing 100 μg/mL of FLAG peptide. The eluate was concentrated with Vivaspin 20 (Vivascience) having a molecular weight cut off of 30K. The concentrate was purified by gel filtration using Hi-Load 16/60 Superdex 200pg (GE Healthcare Bioscience) equilibrated with buffer A. The fractions containing HER2 intracellular domain were collected and cryopreserved at −80° C.
HER2 kinase reaction was carried out using 96-well plate. As a buffer for Kinase reaction, a buffer of a composition of 50 mM Tris-HCl (pH 7.5), 5 mM MnCl2, 2 mM dithiothreitol and 0.01% Tween-20 was used. The compound of the present invention was dissolved in dimethyl sulfoxide (DMSO), and diluted with a buffer for kinase reaction so that the DMSO concentration would become 0.1% during kinase reaction. The compound solution (10 μL) was mixed with a buffer for kinase reaction (20 μL) containing the HER2 intracellular domain (0.625 μg/mL) obtained in Experimental Example 1B and a polypeptide substrate poly-Glu:Tyr (4:1) (12.5 μg/mL, Sigma Ltd.) and the mixture was stood for 5 min at room temperature. […]

Compound	inhibition at 1 µM
COC(=O)C1=Cc2c(ncnc2Nc2ccc(Oc3cccc(C(=O)NC(C)(C)C)c3)c(Cl)c2)NCC1 [Example 135, methyl 4-[(4-{3-[(tert-butylamino)carbonyl]phenoxy}-3-chlorophenyl)amino]-8,9-dihydro-7H-pyrimido[4,5-b]azepine-6-carboxylate]	97%
CC(C)(C)OC(=O)N1CCC(Oc2ccc(Nc3ncnc4c3C=C(CO)CCN4)cc2Cl)CC1 [Example 146, tert-butyl 4-(2-chloro-4-{[6-(hydroxymethyl)-8,9-dihydro-7H-pyrimido[4,5-b]azepin-4-yl]amino}phenoxy)piperidine-1-carboxylate]	92%
CC(C)(CS(=O)(=O)CCO)NC(=O)C1=Cc2c(ncnc2Nc2ccc(Oc3cccc(C(F)(F)F)c3)c(Cl)c2)NCC1 [Example 172, 4-({3-chloro-4-[3-(trifluoromethyl)phenoxy]phenyl}amino)-N-{2-[(2-hydroxyethyl)sulfonyl]-1,1-dimethylethyl}-8,9-dihydro-7H-pyrimido[4,5-b]azepine-6-carboxamide]	95%
CC(C)(C)NC(=O)c1cccc(Oc2ccc(Nc3ncnc4c3C=C(CNC(C)(C)CS(=O)(=O)CCO)CCN4)cc2Cl)c1 [Example 214, N-(tert-butyl)-3-[2-chloro-4-({6-[({2-[(2-hydroxyethyl)sulfonyl]-1,1-dimethylethyl}amino)methyl]-8,9-dihydro-7H-pyrimido[4,5-b]azepin-4-yl}amino)phenoxy]benzamide dihydrochloride]	99%
COC(=O)C1=Cc2c(ncnc2Nc2cnc(Oc3cccc(C(=O)NC(C)(C)C)c3)c(Cl)c2)NCC1 [Example 220, methyl 4-[(6-{3-[(tert-butylamino)carbonyl]phenoxy}-5-chloropyridin-3-yl)amino]-8,9-dihydro-7H-pyrimido[4,5-b]azepine-6-carboxylate]	96%
CC(C)(CS(=O)(=O)CCO)NC(=O)C1=Cc2c(ncnc2Nc2ccc(Oc3cccc(S(=O)(=O)CC4CC4)c3)c(Cl)c2)NCC1 [Example 227, 4-[(3-chloro-4-{3-[(cyclopropylmethyl)sulfonyl]phenoxy}phenyl)amino]-N-{2-[(2-hydroxyethyl)sulfonyl]-1,1-dimethylethyl}-8,9-dihydro-7H-pyrimido[4,5-b]azepine-6-carboxamide]	93%
CC(C)(C)NC(=O)c1cccc(Oc2ccc(Nc3ncnc4c3C=C(/C=N/OCCO)CCN4)cc2Cl)c1 [Example 231, N-(tert-butyl)-3-{2-chloro-4-[(6-{[(2-hydroxyethoxy)imino]methyl}-8,9-dihydro-7H-pyrimido[4,5-b]azepin-4-yl)amino]phenoxy}benzamide]	97%
CC(C)(C)NC(=O)c1cccc(Oc2ccc(Nc3ncnc4c3C=C(CNCCF)CCN4)cc2Cl)c1 [Example 234, N-(tert-butyl)-3-{2-chloro-4-[(6-{[(2-fluoroethyl)amino]methyl}-8,9-dihydro-7H-pyrimido[4,5-b]azepin-4-yl)amino]phenoxy}benzamide]	98%
CN(CCS(C)(=O)=O)CC1=Cc2c(ncnc2Nc2ccc(Oc3cccc(C(=O)NC(C)(C)C)c3)c(Cl)c2)NCC1 [Example 242, N-(tert-butyl)-3-(2-chloro-4-{[6-({methyl[2-(methylsulfonyl)ethyl]amino}methyl)-8,9-dihydro-7H-pyrimido[4,5-b]azepin-4-yl]amino}phenoxy)benzamide]	99%
CCOC(=O)/C=C/C1=Cc2c(ncnc2Nc2ccc(Oc3cccc(C(=O)NC(C)(C)C)c3)c(Cl)c2)NCC1 [Example 246, ethyl (2E)-3-{4-[(4-{3-[(tert-butylamino)carbonyl]phenoxy}-3-chlorophenyl)amino]-8,9-dihydro-7H-pyrimido[4,5-b]azepin-6-yl}acrylate]	98%

Each molecule was assayed against T2, EGFR intracellular domain (Homo sapiens, UniProt P00533) (assay: Assay of EGFR kinase inhibitory activity). Settings: compound 1.0 μM, poly-Glu:Tyr (4:1) substrate, [γ-32P]ATP, read-out: Inhibitory rate (%) at 1.0 μM.
T2 construct: made in house; host or cells: SF-21 insect cells infected with recombinant baculovirus BAC-EGFR
T2 sequence (P00533 669-1210): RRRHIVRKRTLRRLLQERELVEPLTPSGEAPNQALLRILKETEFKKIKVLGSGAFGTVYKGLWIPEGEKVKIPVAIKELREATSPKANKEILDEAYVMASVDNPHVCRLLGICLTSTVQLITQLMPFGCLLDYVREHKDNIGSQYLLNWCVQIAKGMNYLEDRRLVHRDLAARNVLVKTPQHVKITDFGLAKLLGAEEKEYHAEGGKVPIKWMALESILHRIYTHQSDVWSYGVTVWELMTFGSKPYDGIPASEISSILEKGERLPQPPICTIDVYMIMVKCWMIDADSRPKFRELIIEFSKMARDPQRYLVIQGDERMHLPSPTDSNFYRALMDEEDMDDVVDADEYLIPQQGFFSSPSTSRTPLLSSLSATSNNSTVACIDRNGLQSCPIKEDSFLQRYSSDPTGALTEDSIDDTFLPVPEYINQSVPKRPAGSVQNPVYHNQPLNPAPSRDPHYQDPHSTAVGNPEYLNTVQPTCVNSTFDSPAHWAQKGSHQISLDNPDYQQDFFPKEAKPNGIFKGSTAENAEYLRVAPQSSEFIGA
Format: biochemical
Method: Human EGFR gene was cloned by RT-PCR using total RNA prepared from A431 cell as a template. The primer used for RT-PCR was prepared from base sequence (Genbank Accession No. X00588) information of EGFR gene, adding DYKDDDD base sequence encoding the peptide and a restriction enzyme recognition sequence to a base sequence (2191-3819 of Genbank Accession No. X00588 as a base, and corresponding to 669-1210 amino acid of Genbank Accession No. NP_005219 as a protein) encoding the EGFR intracellular domain, so that a DYKDDDD peptide tag would be attached to the N-terminus of the protein. The base sequence of the primer is shown in below.
The RT reaction was performed using Superscript First-Strand Synthesis System for RT-PCR (Invitrogen), and PCR reaction was performed using KOD-plus kit (TOYOBO). The obtained PCR product was electrophoresed on agarose gel (1%), and the DNA fragment amplified by PCR was recovered from the gel, and then digested with restriction enzymes Sal I and Sph I. The DNA treated with the restriction enzymes was electrophoresed on agarose gel (1%), and the obtained DNA fragment was recovered and ligated to plasmid pFASTBAC1 (Invitrogen) digested with restriction enzymes Sal I and Sph I to give expression plasmid pFB-EGFR. The base sequence of the inserted fragment was confirmed and found to be identical with the base sequence of the EGFR intracellular domain (2191-3819 of Genbank Accession X00588). Furthermore, virus stock BAG-EGFR of recombinant Baculovirus was prepared using BAC-TO-BAC Baculovirus Expression System (Invitrogen).
SF-21 cells were sown at 1×10^6 cells/mL to 1 L of Sf-900II SFM medium (Invitrogen) containing 10% fetal calf serum (trace), 50 mg/L Gentamicin (Invitrogen) and 0.1% Pluronic F-68 (Invitrogen), and cultured with shaking in a 2 L Erlenmeyer flask at 27° C., 100 rpm. After culture for 24 hr, recombinant Baculovirus BAC-EGFR (13.4 mL) was added thereto, and the cells were further cultured for 3 days. The culture medium was centrifuged at 2,000 rpm for 5 min to give virus infected cells. The infected cells were washed with phosphate buffered saline (Invitrogen), centrifuged under the same conditions, and preserved at −80° C. The cryopreserved cells were thawed in ice and suspended in 30 mL of buffer A containing Complete Protease Inhibitor (Boehringer) (50 mM tris buffer (pH 7.4) containing 20% Glycerol, 0.15 M NaCl). The cells were disrupted 3 times at 20,000 rpm for 30 sec using a polytron homogenizer (Kinematica). The disrupt was clarified by centrifugation at 40,000 rpm for 30 min and filtered through a 0.45 μm filter. The filtrate was passed through a column packed with 4 mL of Anti-FLAG M2 Affinity Gel (Sigma Aldrich Co.) at a flow rate of about 0.5 mL/min. The column was washed with buffer A, and eluted with buffer A containing 100 μg/mL of FLAG peptide. The eluate was concentrated with Vivaspin 20 having a molecular weight cut off of 30 K (Vivascience). The concentrate was purified by gel filtration using Hi-Load 16/60 Superdex 200 pg (GE Healthcare Bioscience) equilibrated with buffer A. The fractions containing EGFR intracellular domain were collected and cryopreserved at −80° C.
EGFR kinase reaction was carried out using a 96-well plate. As a buffer for Kinase reaction, a buffer of a composition of 50 mM Tris-HCl (pH 7.5), 5 mM MnCl2, 2 mM dithiothreitol and 0.01% Tween-20 was used. […]

Compound	inhibition at 1 µM
O=C(NCCCn1ccnc1)C1=Cc2c(ncnc2Nc2ccc(Oc3cccc(C(F)(F)F)c3)c(Cl)c2)NCC1 [Example 115, 4-({3-chloro-4-[3-(trifluoromethyl)phenoxy]phenyl}amino)-N-[3-(1H-imidazol-1-yl)propyl]-8,9-dihydro-7H-pyrimido[4,5-b]azepine-6-carboxamide]	95%
O=C(NCC(O)CO)C1=Cc2c(ncnc2Nc2ccc(Oc3cccc(C(F)(F)F)c3)c(Cl)c2)NCC1 (stereo not drawn) [Example 136, 4-({3-chloro-4-[3-(trifluoromethyl)phenoxy]phenyl}amino)-N-(2,3-dihydroxypropyl)-8,9-dihydro-7H-pyrimido[4,5-b]azepine-6-carboxamide]	97%
